Laboratory results: patent EP0369035A1, “AGENT FOR TREATING PANCREATITIS OR THE LIKE” (priority 1988, dated 1989)

Assays:
experimental shock = test: Effect on experimental shock (endotoxin-induced), survival ratio; assay type: in vivo, ICR-mice; details: dose of 30 mg/kg intraperitoneally 15 minutes before endotoxin 40 mg/kg, mouse
Description: [IV] Effect on experimental shock
ICR-mice, body weight of about 25 g, were starved overnight. The test substance was dissolved in an injective 5% glucose solution and intraperioneally administered, and 15 minutes later, endotoxin (E. coli 0127:B8, Difco, U.S.) dissolved in a physiological saline was intraperioneally administered to an amount of 40 mg/kg body weight.

human plasmin [1] = molecular target: T1, human plasmin (Homo sapiens, UniProt P00747); test: Anti-plasmin activity: inhibition of S-2251 degradation; assay type: biochemical; details: substrate S-2251, 37°C, pH7.4; read-out: Plasmin S-2251 (I50)
T1 construct: 50 µl of 0.2 casein units/ml of human plasmin
Description: ii) Assay method of inhibition of S-2251 degradation
The test substance was dissolved in a 0.05 M Tris-HC1 (pH7.4) buffer to make a total volume of 400 µl, and 50 µl of a 3 mM S-2251 solution was added to the solution. The mixture was incubated at 37°C for 5 minutes in an incubator, and after the addition of 50 µl of 0.2 casein units/ml of human plasmin, and incubation at 37°C for 4 minutes, the reaction was terminated by an addition of 50 µl of 50% acetic acid.

human plasma kallikrein = molecular target: T2, human plasma kallikrein (Homo sapiens, UniProt P03952); test: Anti-plasma kallikrein activity: inhibition of S-2302 degradation; assay type: biochemical; details: substrate S-2302, 37°C, pH 7.8; read-out: Plasma kallikrein S-2302 (I50)
T2 construct: 50 µl of 0.12 units/ml human plasma kallikrein solution
Description: 2) Assay of anti-plasma kallikrein activity Assay method of inhibition of S-2302 degradation
(§1) The test substance was dissolved in a 0.05 M Tris-HC1 (pH 7.8) buffer to make a total volume of 400 µl, and 50 µl of a 2 mM S-2302 solution was added to the solution. After incubation at 37°C for 5 minutes in an incubator, an addition of 50 µl of 0.12 units/ml human plasma kallikrein solution, and incubation at 37°C for 5 minutes, the reaction was terminated by an addition of 50 µl of 50% acetic acid.

bovine factor Xa = molecular target: T3, bovine factor Xa (Bos taurus, UniProt P00743); test: Anti-FXa activity: inhibition of S-2222 degradation; assay type: biochemical; details: substrate S-2222, 37°C, pH 8.3; read-out: FXa S-2222 (I50)
T3 construct: 0.05 ml of 0.3 vial/ml bovine factor Xa
Description: 4) Assay of anti-FXa activity Assay method of inhibition of S-2222 degradation
To 0.4 ml of the test substance dissolved in a 0.05 M Tris-HC1 (pH 8.3) buffer is added 0.05 ml of 3 mM S-2222 solution, and after incubation at 37°C for about 4 minutes, an addition of 0.05 ml of 0.3 vial/ml bovine factor Xa, and a reaction at 37°C for 4 minutes, the - reaction was terminated by adding 0.05 ml of 50% acetic acid.

[2] = test system: experimental pancreatitis; test: Effect on experimental pancreatitis (sodium taurochorate + trypsin into the common bile duct), survival ratio; assay type: in vivo, SD-rats; set-up: Effect on experimental pancreatitis (100 mg/kg p.o.) After 24 hours / Effect on experimental pancreatitis (100 mg/kg p.o.) After 48 hours / Effect of existing control drug on experimental pancreatitis After 24 hours: unit not given here; details: rat; for Effect on experimental pancreatitis Survival ratio(%) After 24 hours / Effect on experimental pancreatitis Survival ratio(%) After 48 hours: 80 μg/kg/min. x 80 min. continuous infusion; for Effect on experimental pancreatitis (100 mg/kg p.o.) After 24 hours / Effect on experimental pancreatitis (100 mg/kg p.o.) After 48 hours: survival ratio, 100 mg/kg p.o. 30 minutes before pancreatitis
From the text: [II] Effect on experimental pancreatitis
SD-rats, body weight of about 200 g were, starved overnight, and 10 to 24 animals were used in one group. Sodium pentobarbital was intraperioneally administered to anesthetize each rat, and then a cannula was inserted to the femoral vein for the administration of the test substance. After abdominal surgery, the bile duct was blocked at a part thereof proximate to the liver, by a clip, a polyethylene tube was inserted to the common bile duct at a part thereof most proximate to the duodenum, and 0.1 ml of solution containing 2 mg sodium taurochorate and 1000 U trypsin dissolved in physiological saline was injected retrogrodely. After removal of the clip and tube, the common bile duct was ligated and the abdomen was closed. Note, the test substance was dissolved in an injective 5% glucose solution, and in the case of a continuous infusion, the solution was administered over 80 minutes starting from 10 minutes before the generation of pancreatitis. In the case of oral administration, the test substance was administered through an oral catheter 30 minutes before the generation of pancreatitis. After 24 hours and 48 hours from the generation of pancreatitis, the survival ratio of the animals was calculated and compared with a control group.

in vivo = details: mouse, intravenous, ICR male mice, up-and-down method, read-out: Acute toxicity (LD50)
Description: ICR male mice 5 to 10 weeks old were used. The test substance was dissolved in a 5% dimethylsulfoxide aqueous solution, and the solution was intravenously administered in an amount of 0.1 to 0.2 ml/10 g body weight. An LD50 value was calculated by up-and-down method.

human urokinase = human urokinase (Homo sapiens, UniProt P00749); test: Anti-urokinase activity: inhibition of S-2444 degradation; assay type: biochemical; details: substrate S-2444, 37°C, pH 8.8; read-out: Urokinase S-2444 (I50)
Description: 3) Assay of anti-urokinase activity Assay method of inhibition of S-2444 degradation
as §1, with “8.8)” for “7.8)”, “1” for “2”, “S-2444” for “S-2302”, “mixture.” for “solution.”, “500” for “0.12”, “urokinase” for “plasma kallikrein”

[3] = Measurement of half life in blood; assay type: in vivo; details: rat, iv; administered to the tail vein, SD-rats, plasma, HPLC
Description: [VI] Measurement of half life in blood
SD-rats 6 to 7 weeks old were used. The test substance was dissolved in an injective 5% glucose solution and administered to the tail vein. After the administration, blood samples were periodically obtained from the great vein and placed into heparinized test tubes. Plasma was separated by centrifugation and the test substance was extracted with ethyl acetate. After removal of the solvent, the residue was dissolved in 200 µl of methanol, and analyzed by high performance liquid chromatography. From the change of the concentration of the test substance in blood with time, a half life thereof in blood was calculated.

human plasmin [4] = molecular target: T1, human plasmin; test: Anti-plasmin activity: inhibition of fibrinolysis (fibrin clot lysis time); assay type: biochemical; details: concentration giving a fibrin clot lysis time twice that of control, 37°C, pH7.4; read-out: Plasmin Fibrin (I50)
experimental DIC = test: Effect on experimental DIC and MOF (endotoxin-induced); assay type: in vivo, SD-rats; details: rat, 4 hours after endotoxin 10 mg/kg; for CPK: Table 5-1
Description: [III] Effect on experimental DIC
SD-rats, body weight of about 200 g, were starved overnight. Sodium pentobarbital was intraperioneally administered to anesthetize a rat, and then a cannula was inserted to the femoral vein, and the test substance dissolved in an injective 5% glucose solution was continually infused. Then, 10 minutes from the start of the injection, endotoxin (E. coli 0127:B8, Difco, U.S.) dissolved in physiological saline was injected through the tail vein to an amount of 10 mg/kg body weight, and 4 hours from the administration of endotoxin, the abdomen was opened, blood was obtained from the abdominal aorta, and platelets (Plt), fibrinogen (Fbg), fibrin degradation product (FDP), glutamic oxaloacetic transamirase (GOT), creatinine phosphokinase (CPK), and blood urin nitrogen (BUN) were measured.

T2 sequence (P03952 391-638 limits assumed): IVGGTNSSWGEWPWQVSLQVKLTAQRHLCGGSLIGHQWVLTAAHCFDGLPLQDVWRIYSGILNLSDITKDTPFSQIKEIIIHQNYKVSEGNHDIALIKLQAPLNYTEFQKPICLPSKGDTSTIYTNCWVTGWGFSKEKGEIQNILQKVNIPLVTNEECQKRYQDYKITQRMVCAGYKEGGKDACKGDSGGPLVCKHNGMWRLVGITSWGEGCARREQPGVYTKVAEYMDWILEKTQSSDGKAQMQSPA
T2 sequence (P03952 20-390 partner limits assumed): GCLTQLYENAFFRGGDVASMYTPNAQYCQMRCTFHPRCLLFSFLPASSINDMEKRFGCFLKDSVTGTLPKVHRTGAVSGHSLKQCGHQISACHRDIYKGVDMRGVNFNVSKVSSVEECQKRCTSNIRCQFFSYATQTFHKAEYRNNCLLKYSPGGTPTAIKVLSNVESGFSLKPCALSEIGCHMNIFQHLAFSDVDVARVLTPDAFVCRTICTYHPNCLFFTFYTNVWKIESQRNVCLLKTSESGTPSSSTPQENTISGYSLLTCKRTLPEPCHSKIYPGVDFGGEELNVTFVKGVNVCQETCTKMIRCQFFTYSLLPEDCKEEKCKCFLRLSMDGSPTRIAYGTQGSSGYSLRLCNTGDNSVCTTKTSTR
T3 sequence (P00743 234-492 limits assumed): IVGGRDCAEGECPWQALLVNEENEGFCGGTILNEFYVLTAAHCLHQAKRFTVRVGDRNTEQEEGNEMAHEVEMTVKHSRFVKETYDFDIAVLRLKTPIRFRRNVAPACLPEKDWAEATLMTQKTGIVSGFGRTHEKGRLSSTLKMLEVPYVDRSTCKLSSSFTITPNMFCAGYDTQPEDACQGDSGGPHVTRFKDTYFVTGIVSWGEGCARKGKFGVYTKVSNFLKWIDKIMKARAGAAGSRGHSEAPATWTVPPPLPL
T3 sequence (P00743 41-180 partner limits assumed): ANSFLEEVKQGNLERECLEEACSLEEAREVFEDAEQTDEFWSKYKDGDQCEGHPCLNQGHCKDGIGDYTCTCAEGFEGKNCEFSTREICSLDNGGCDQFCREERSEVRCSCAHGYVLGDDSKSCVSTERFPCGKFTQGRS
T1 sequence (P00747 581-810 limits assumed): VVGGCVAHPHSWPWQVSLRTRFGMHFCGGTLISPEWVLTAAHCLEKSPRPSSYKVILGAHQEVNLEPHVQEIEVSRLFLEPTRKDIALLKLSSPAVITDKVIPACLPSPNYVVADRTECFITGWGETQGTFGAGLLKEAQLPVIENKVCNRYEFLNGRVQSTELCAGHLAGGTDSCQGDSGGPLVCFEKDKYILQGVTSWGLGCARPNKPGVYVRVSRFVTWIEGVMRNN
T1 sequence (P00747 97-580 partner limits assumed): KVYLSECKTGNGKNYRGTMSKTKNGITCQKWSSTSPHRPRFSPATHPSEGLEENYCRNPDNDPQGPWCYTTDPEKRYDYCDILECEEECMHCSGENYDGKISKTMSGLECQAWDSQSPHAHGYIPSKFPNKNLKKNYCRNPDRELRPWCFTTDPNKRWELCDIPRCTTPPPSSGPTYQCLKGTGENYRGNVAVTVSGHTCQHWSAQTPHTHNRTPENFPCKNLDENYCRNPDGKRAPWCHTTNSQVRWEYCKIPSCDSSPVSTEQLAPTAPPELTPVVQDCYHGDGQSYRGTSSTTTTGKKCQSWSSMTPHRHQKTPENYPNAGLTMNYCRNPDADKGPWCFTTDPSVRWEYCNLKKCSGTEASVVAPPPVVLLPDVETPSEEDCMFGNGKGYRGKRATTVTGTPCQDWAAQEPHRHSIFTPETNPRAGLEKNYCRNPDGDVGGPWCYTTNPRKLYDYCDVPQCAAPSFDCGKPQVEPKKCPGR

Compound | Effect on experimental shock (Survival ratio (%) after 24 hours) (experimental shock) | IC50 (human plasmin [1]) | IC50 (human plasma kallikrein) | IC50 (bovine factor Xa) | Effect on experimental pancreatitis Survival ratio(%) After 24 hours [2] | Effect on experimental pancreatitis Survival ratio(%) After 48 hours [2] | Effect on experimental pancreatitis (100 mg/kg p.o.) After 24 hours [2] | Effect on experimental pancreatitis (100 mg/kg p.o.) After 48 hours [2] | LD50 (in vivo) | IC50 (human urokinase) | half-life [3] | IC50 (human plasmin [4]) | BUN (experimental DIC; Dose 10 μg/kg/min infusion) | FDP (experimental DIC; Dose 10 μg/kg/min infusion) | Fbg (experimental DIC; Dose 10 μg/kg/min infusion) | GOT (experimental DIC; Dose 10 μg/kg/min infusion) | Plat (experimental DIC; Dose 10 μg/kg/min infusion) | CPK (experimental DIC; Dose 10 μg/kg/min infusion) | further results
CC(=O)c1ccc(NC(=O)[C@H](Cc2ccc(OCc3ccccn3)cc2)NC(=O)[C@H]2CC[C@H](CN)CC2)cc1 [Compound 6] | 70% | 2.7 µM | 2 µM | 160 µM | 62.5% | 54.1% | 66.7 | 53.3 | 85 mg/kg | 75 µM | 12.2 min | 1.4 µM | 26 ± 2 mg/dL | 8 to 32 µg/mL | 179 ± 15 mg/dL | 196 ± 28 U/ml | 95 ± 14 x 10^4/μl | 22 ± 6 U/1 | BUN (experimental DIC; Dose 1 μg/kg/min infusion): 36 ± 2 mg/dL; FDP (experimental DIC; Dose 1 μg/kg/min infusion): 32 to 65 µg/mL; Fbg (experimental DIC; Dose 1 μg/kg/min infusion): 140 ± 18 mg/dL; GOT (experimental DIC; Dose 1 μg/kg/min infusion): 217 ± 29 U/ml; Plat (experimental DIC; Dose 1 μg/kg/min infusion): 68 ± 11 x 10^4/μl
NC[C@H]1CC[C@H](C(=O)N[C@@H](Cc2ccc(OCc3ccccc3)cc2)C(=O)Nc2cccnc2)CC1 [Compound 1] | 82% | 6.1 µM | 1.7 µM |  | 55.5% | 29.1% |  |  | 70 mg/kg | 45 µM | 15.3 min | 2.9 µM | 28 ± 3 mg/dL | 16 to 32 µg/mL | 146 ± 7 mg/dL | 299 ± 63 U/ml | 65 ± 6 x 10^4/μl |  | 
CC(=O)c1ccc(NC(=O)[C@H](Cc2ccc(OCc3cccc(Cl)c3)cc2)NC(=O)[C@H]2CC[C@H](CN)CC2)cc1 [Compound 3] | 67% | 0.8 µM | 0.38 µM | 35 µM |  |  |  |  | > 100 mg/kg | 40 µM |  | 0.1 µM | 40 ± 5 mg/dL | 8 to 64 µg/mL | 160 ± 13 mg/dL | 133 ± 4 U/ml | 78 ± 7 x 10^4/μl | 14 ± 2 U/1 | 
NC[C@H]1CC[C@H](C(=O)N[C@@H](Cc2ccc(OCc3ccccc3)cc2)C(=O)Nc2ccc(CC(=O)O)cc2)CC1 [Compound 8] |  | 25 µM | 3 µM | 290 µM | 58.3% | 58.3% | 58.3 | 33.3 | > 100 mg/kg | 260 µM | 10.6 min | 9.2 µM |  |  |  |  |  |  | 
